Where “and” joins values, the source holds several entries; their conditions need not be identical. Equal values may be shown once. Read-outs that look alike come from different tables or passages of the source.
Key:
CR-WT parasites = assay: Growth inhibition assay (72 h, LDH activity); format: cell-based, Plasmodium falciparum; details: CR-WT; for inhibition at 0.1 µM / inhibition at up to 0.1 µM / EC50: Plasmodium falciparum; for inhibition at 0.1 µM / inhibition at up to 0.1 µM: read-out: NORMALISED (growth inhibition, LDH absorbance); for EC50: read-out: EC50 W-991 (95% confidence interval), Fig 4C, n = 3
Description: Parasite growth assays with inhibitory compounds were performed as per[11] and are fully described in the Supplementary Information.
Molecular biology and transfection of P. falciparum: CRISPR method.
The full 5’ homology region of pfstart1 (either WT, N309K or N330K) was amplified from pPfSTART1-HA-2A-Neo-glmS with the same 5’ BglII primer and a new 3’ primer that replaced with PstI with SpeI and introduced a stop codon. The PCR product was then digested with BglII and SpeI and inserted into similarly digested p1.2 parasite vector2. The p1.2 vector had previously been inserted with a homology region amplified from the 3’ end of the pfstart1 gene (3’HB) to form a second homology block for double recombination. The primers used to amplify 3’HB are listed primers listed in […]
60 μg of p1.2-PfSTART1(WT/N309K/N330K) plasmid was linearised with KasI, precipitated in 3 M sodium acetate and ethanol (70% final concentration) overnight at -20°C. The DNA pellet was washed in cold 70% ethanol and resuspended in cytomix 3.
50 μ M of crRNA ( Table S 2) and 50 μM of tracRNA (Integrated DNA Technologies) were allowed to form a duplex (5 min at 95°C), and Cas9 enzyme (Integrated DNA Technologies) was added, and incubated for 20 min at room temperature 4. This crRNA -tracRNA -Cas9 mix was added to each DNA preparation and transfected to 3D7 ring parasites using the Bio -Rad Gene Pulser at 310 V and 950 μF.
Parasites containing the transfected DNA were selected using 2.5 nM WR99210 (Jacobus). Parasites lines were cloned using limiting dilution. Correct integration was tested by PCR (using primer START_5’UTR.F and START_Int.R1 , Table S 2), and sequencing was done using the primers START_3F and START_Int.R2 (Table S 2).
Growth inhibition assays. Synchronised ring-stage parasites (0.3-0.6% parasitemia, 2% haematocrit) were grown for 72 h in a serial-dilution of the compound under […]
(§1) and compound 4. Note that M-833 was first purchased from MolPort (MolPort -002-267-916) then made in-house at WEHI: the differences observed in EC50s across experiments are attributed to the different batches of M -833. For some experiments, 0, 0.25 or 2.5 mM of glucosamine (GlcN) was also added. Experiments were set up in technical duplicates or triplicates. Following a freeze -thaw cycle, lactate dehydrogenase (LDH) activity was assessed as an indicator of parasite growt h 5. 30 μL of parasite culture was incubated for 30 min in the dark with 75 μL Malstat mixture (0.1 M Tris pH 9.0, 20 g/L lactic acid, pH 7.5, 0.2% Triton-X100, 0.5 g/L acetylpyridine adenine dinucleotide (APAD, Sigma), 200 μg/mL nitroblue tetrazolium (NBT; Sigma), 1 μg/mL phenozine ethosulfate (PES; Sigma)). Absorbance was then measured at 650 nm, transformed using the formula below, plotted against the logarithm of the concentrations, and a non-linear regression (log(inhibitor) vs. response, variable slope) was calculated using GraphPad Prism to assess the half-inhibitory […]
(§2) Growth inhibition % = (1 − average(sample)− average(uRBC)) ∗ 100 […]
(§3) The DMSO samples were also used to assess growth of parasite in the presence of 0.25 and 2.5 mM GlcN (normalised by DMSO in 0 mM GlcN). […]

[1] = system: M-833 resistant parasite populations (PopC, PopD, PopE); assay: Growth inhibition of M-833 resistant populations (LDH); format: cell-based, Plasmodium falciparum; details: Fig 4B
Description: After three cycles of drug treatment, three parasite populations were identified as less susceptible to the compound and their growth in serially diluted M-833 after 72 h was measured by lactate dehydrogenase (LDH) activity assays. […] The two most resistant populations (PopD and PopE) were further cloned out by limiting dilution. […] To identify the target of M-833, genomic DNA was extracted from the clonal lines of PopD and PopE and subjected to whole genome sequencing using MinION technology and compared to clonal 3D7 parental parasites. This identified 14 non-synonymous single nucleotide polymorphisms (SNP) across nine different genes when compared to the 3D7 parental strain (Supplementary Data 1). The two genes that had SNPs present across all resistant clones were the P. falciparum liver stage antigen 1 gene (PF3D7_1036400) and P. falciparum stAR-related lipid transfer protein (PF3D7_0104200, PFA0210c; pfstart1). The former is not expressed in the blood stage[19]–[21] and comprises a large central repeat region which is problematic for variant calling. […] Collectively, all the identified mutations (N309K, I224F, N330K) were found within the central conserved START domain and predicted to face the lipid-binding pocket (Fig. 1C).
The drug was then removed, and parasites were allowed to recover. Another cycle of drug treatment (3 μM M-833) was then resumed. The resistant lines were cloned out by limiting dilution (diluting the culture into a 96-well plate to achieve an average of ~0.3 parasites per well), prior to growth inhibition assays and genomic DNA (gDNA) extraction (DNeasy Blood and Tissue kit (Qiagen)[18].
Parasite growth assays with inhibitory compounds were performed as per[11] and are fully described in the Supplementary Information. […]
as §1, §2, §3

[2] = 0.25 mM GlcN, dilution point 1 of 10, starting concentration 100 nM
[3] = 2.5 mM GlcN, dilution point 1 of 10, starting concentration 100 nM
[4] = 2.5 mM GlcN, dilution point 2 of 10 from starting concentration 100 nM
[5] = 2.5 mM GlcN, dilution point 3 of 10 from starting concentration 100 nM
[6] = 2.5 mM GlcN, dilution point 4 of 10 from starting concentration 100 nM
[7] = 2.5 mM GlcN, dilution point 6 of 10 from starting concentration 100 nM

CC(C)(Nc1ccc(Cl)c(S(=O)(=O)N2CCOCC2)c1)C(=O)Nc1ccc(F)c(Cl)c1 [W-991]
NORMALISED (growth inhibition, LDH absorbance vs DMSO and uRBC) (CR-WT parasites; 0 mM GlcN, W991 at 1.23457 nM): 49.5102 and 70.9626
NORMALISED (growth inhibition, LDH absorbance vs DMSO and uRBC) (CR-WT parasites; 0 mM GlcN, W991 at 3.7037 nM): 86.3119 and 94.5107
NORMALISED (growth inhibition, LDH absorbance vs DMSO and uRBC) (CR-WT parasites; 0 mM GlcN, W991 at 11.1111 nM): 91.2364 and 97.6134
NORMALISED (growth inhibition, LDH absorbance vs DMSO and uRBC) (CR-WT parasites; 0 mM GlcN, W991 at 33.3333 nM): 92.4279 and 96.4200
NORMALISED (growth inhibition, LDH absorbance vs DMSO and uRBC) (CR-WT parasites; 0 mM GlcN, W991 at 100 nM): 91.9778 and 98.0111
NORMALISED (growth inhibition, LDH absorbance) (CR-WT parasites; [2]): 97.4106
NORMALISED (growth inhibition, LDH absorbance) (CR-WT parasites; 0.25 mM GlcN, dilution point 2 of 10 from starting concentration 100 nM): 93.8101
NORMALISED (growth inhibition, LDH absorbance) (CR-WT parasites; 0.25 mM GlcN, dilution point 3 of 10 from starting concentration 100 nM): 94.0567
NORMALISED (growth inhibition, LDH absorbance) (CR-WT parasites; 0.25 mM GlcN, dilution point 4 of 10 from starting concentration 100 nM): 92.7990
NORMALISED (growth inhibition, LDH absorbance) (CR-WT parasites; 0.25 mM GlcN, dilution point 5 of 10 from starting concentration 100 nM): 69.6729 and 71.5413
NORMALISED (growth inhibition, LDH absorbance) (CR-WT parasites; 0.25 mM GlcN, dilution point 6 of 10 from starting concentration 100 nM): 30.2387 and 29.5808
NORMALISED (growth inhibition, LDH absorbance) (CR-WT parasites; [3]): 92.5403
NORMALISED (growth inhibition, LDH absorbance) (CR-WT parasites; [4]): 92.2581
NORMALISED (growth inhibition, LDH absorbance) (CR-WT parasites; [5]): 92.0699
NORMALISED (growth inhibition, LDH absorbance) (CR-WT parasites; [6]): 91.3306
NORMALISED (growth inhibition, LDH absorbance) (CR-WT parasites; 2.5 mM GlcN, dilution point 5 of 10 from starting concentration 100 nM): 90.4301
NORMALISED (growth inhibition, LDH absorbance) (CR-WT parasites; [7]): 75.1747
NORMALISED (growth inhibition, LDH absorbance) (CR-WT parasites; 2.5 mM GlcN, dilution point 7 of 10 from starting concentration 100 nM): 66.8125 and 50.5511
NORMALISED (growth inhibition, LDH absorbance) (CR-WT parasites; 2.5 mM GlcN, dilution point 8 of 10 from starting concentration 100 nM): 47.5123 and 39.2070
NORMALISED (growth inhibition, LDH absorbance) (CR-WT parasites; 2.5 mM GlcN, dilution point 9 of 10 from starting concentration 100 nM): 32.6882 and 33.0782
NORMALISED (growth inhibition, LDH absorbance) (CR-WT parasites; 2.5 mM GlcN, dilution point 10 of 10 from starting concentration 100 nM): 35.7796 and 19.6829
fold sensitised on PfSTART1 knock-down with GlcN (CR-WT parasites; Fig 4C): 7 fold
inhibition at 0.1 µM (CR-WT parasites; [2]): 93.4%
inhibition at 0.1 µM (CR-WT parasites; [3]): 94.2%
inhibition at up to 0.1 µM (CR-WT parasites; [4]): 91.4%
inhibition at up to 0.1 µM (CR-WT parasites; [5]): 93%
inhibition at up to 0.1 µM (CR-WT parasites; [6]): 91.6%
inhibition at up to 0.1 µM (CR-WT parasites; [7]): 80.3%
EC50 (CR-WT parasites; 0 mM GlcN): 1.08 nM
EC50 (CR-WT parasites; 0.25 mM GlcN): 0.727 nM
EC50 (CR-WT parasites; 2.5 mM GlcN): 0.154 nM

O=C(CNc1ccc(Cl)c(S(=O)(=O)N2CCOCC2)c1)Nc1ccc(F)c(Cl)c1 [compound 2, reference compound]
activity against M-833-resistant populations [1]: cross-resistant

Source: publication PMC11189555, “Aryl amino acetamides prevent Plasmodium falciparum ring development via targeting the lipid-transfer protein PfSTART1” (Nature Communications, 2024)
